According to patent US20250275966A1, “GABAA RECEPTOR MODULATOR SALTS, PARTICLES, AND USES THEREOF” (Engrail Therapeutics, Inc., priority 2022, published 2025):
In brackets after ≈: the same amount, converted by molar mass. Where a name gives a salt, the structure may show the parent alone.

Legend:
[1] = Pharmacokinetic analysis of Compound 1 and its salts after oral capsule administration (Example 4); type: in vivo, cynomolgus monkeys; details: single PO capsule, 30 mg/kg
Protocol: A pharmacokinetic analysis was performed comparing administration of Compound 1 with certain salts of Compound 1 after oral (PO) administration in 3 male cynomolgus monkeys. The subjects received a single PO oral gavage of active pharmaceutical ingredient (API) (e.g., Compound 1 fumarate, Compound 1 sulfate, Compound 1 hydrochloride, Compound 1 phosphate, Compound 1 tosylate, Compound 1 malonate, Compound 1 maleate, or Compound 1 free base) in a capsule at a dose of 30 mg/kg. Following dose administration, the animals were flushed with approximately 10 milliliters of tap water to ensure all API was administered. Animals were observed twice daily and at sample collection time-points for any abnormal clinical and behavioral signs. Body weights were taken prior to dosing and weekly thereafter until study termination. Blood samples (0.5 mL) were collected pre-dose, 15 minutes, 30 minutes, and 1, 2, 4, 6, 8, 10, 12, and 24 hours post-dose. Each blood sample was collected from the monkey's femoral, saphenous or other available vein via direct venipuncture, placed into a polypropylene tube containing K2EDTA as the anticoagulant, and gently inverted several times to mix. The blood samples were kept on wet ice until centrifugation. Blood was centrifuged within 10 minutes of collection. The samples were centrifuged at a temperature of 4° C., at 3,000 g, for 5 minutes. The resulting plasma (˜0.25 mL) was divided into two equal aliquots (125 μL each) into polypropylene tubes, designated as Set A and Set B, after centrifugation. Plasma samples designated for certain metabolites (Set A) were treated with 12.5 μL of 2 M ascorbic acid (plasma: ascorbic acid=[…], v:v) prepared beforehand by combining 0.352 g of ascorbic acid into 1 mL of sterile water in a glass vial and mixing thoroughly. […] Once plasma was prepared, the samples were snap frozen on dry ice. All plasma samples were stored frozen below −70° C. until analyzed.

[2] = Intrinsic dissolution rate and solubility in 0.1 N HCl with 1% Tween 80 (USP <1087>); type: physicochemical; details: 0.1 N HCl with 1% Tween 80, 37° C.; for Solubility, time point 15 min / Solubility, time point 30 min / Solubility, time point 45 min / Solubility, time point 60 min / Solubility, time point 75 min / Solubility, time point 90 min / Solubility, time point 105 min / Solubility, time point 120 min: 500 mL, pellet about 75 mg; for Intrinsic Dissolution Rate IDR: paddle 100 rpm, die surface 0.5 cm^2; for Solubility, Cumulative: sum of the 15-120 min time points
Protocol: The intrinsic dissolution rate was determined by forming compacted pellets of approximately 75 mg of API using a compression force of 1200 pounds of force, and each pellet (die surface area: 0.5 cm^2) was immersed into a flat bottom vessel containing 500 mL of medium (aqueous 0.1 N HCl with 1% Tween 80 (polyoxyethylene (20) sorbitan monooleate)), using a Distek 2100A dissolution bath, and Distek Circulator/heater (set to 37° C.), with a paddle speed of 100 rpm. An aliquot of the sample (1 mL) was pulled from dissolution media at 15, 30, 45, 60, 75, 90, 105, and 120 minutes, filtered, and analyzed by HPLC. The slope of the dissolution profile corresponded to an intrinsic dissolution rate of hemi-fumarate salt Form B of 6.2 μg/(min·cm^2) as compared to 8.9 μg/(min·cm^2) for Compound 1 (free base). Determination of intrinsic dissolution rate (IDR) was performed for Compound 1 and seven different salts of Compound 1 according to USP <1087> in 0.1 N hydrochloric acid with 1% Tween 80 (Polyoxyethylene […] sorbitan monooleate). Compacted pellets containing approximately 75 mg API were prepared using a compression force of 1200 pounds of force, and each pellet (die surface area: 0.5 cm^2) was immersed into a flat bottom vessel containing 500 mL of medium, using a Distek 2100A dissolution bath, and Distek Circulator/heater (set to 37° C.), with a paddle speed of 100 rpm. An aliquot of the sample (1 mL) was pulled from dissolution media at 15, 30, 45, 60, 75, 90, 105, and 120 minutes, filtered, and analyzed by HPLC. HPLC for IDR and solid-state stability analyses were conducted with an Agilent 1260 Infinity system equipped with a G1311B Quad pump, […] Autosampler, G1330B auto-sampler thermostat, G1316A Thermostatted Column Compartment with a column switch valve, and […] diode array detector.

[3] = 3 male cynomolgus monkeys, plasma Compound 1
[4] = 3 male cynomolgus monkeys, plasma Compound 1, listed as Free base
[5] = listed as Compound 1 (parent free base)

## [2H]C([2H])([2H])C(c1cc2nnc(-c3cc(F)ccc3F)n2nc1OCc1ncnn1C)(C([2H])([2H])[2H])C([2H])([2H])[2H] [Compound 1, 3-(2,5-difluorophenyl)-7-[1,1-di(methyl-d3)ethyl-2,2,2-d3]-6-[(1-methyl-1H-1,2,4-triazol-5-yl)methoxy]-1,2,4-triazolo[4,3-b]pyridazine]
[1]; [3]
  Cmax: 1550 ng/mL
[1]; [4]
  AUClast: 25463 ng·h/mL
  Tmax: 4.0 h
[1]; male cynomolgus monkeys
  AUClast: 25463 ng·h/mL
[2]; [5]
  Solubility, time point 15 min: 0.413 µg/mL (≈ 1.01 µM)
  Solubility, time point 30 min: 0.464 µg/mL (≈ 1.14 µM)
  Solubility, time point 45 min: 0.641 µg/mL (≈ 1.57 µM)
  Solubility, time point 60 min: 0.823 µg/mL (≈ 2.01 µM)
  Solubility, time point 75 min: 0.89 µg/mL (≈ 2.18 µM)
  Solubility, time point 90 min: 1.026 µg/mL (≈ 2.51 µM)
  Solubility, time point 105 min: 1.23 µg/mL (≈ 3.01 µM)
  Solubility, time point 120 min: 1.31 µg/mL (≈ 3.21 µM)
  Intrinsic Dissolution Rate IDR: 8.9 μg/(min · cm^2)
  Solubility, Cumulative: 6.797 µg/mL (≈ 16.6 µM)
[2]; listed as Compound 1 (free base)
  Intrinsic Dissolution Rate IDR: 8.9 μg/(min · cm^2)

## [2H]C([2H])([2H])C(c1cc2nnc(-c3cc(F)ccc3F)n2nc1OCc1ncnn1C)(C([2H])([2H])[2H])C([2H])([2H])[2H] [Maleate Salt, 3-(2,5-difluorophenyl)-7-[1,1-di(methyl-d3)ethyl-2,2,2-d3]-6-[(1-methyl-1H-1,2,4-triazol-5-yl)methoxy]-1,2,4-triazolo[4,3-b]pyridazine]
[1]; [3]
  AUClast: 20575 ng·h/mL
  Cmax: 1388 ng/mL
  Tmax: 12.0 h
[2]
  Solubility, time point 15 min: 0.245 µg/mL
  Solubility, time point 30 min: 0.36 µg/mL
  Solubility, time point 45 min: 0.462 µg/mL
  Solubility, time point 60 min: 0.567 µg/mL
  Solubility, time point 75 min: 0.681 µg/mL
  Solubility, time point 90 min: 0.791 µg/mL
  Solubility, time point 105 min: 0.941 µg/mL
  Solubility, time point 120 min: 1.01 µg/mL
  Intrinsic Dissolution Rate IDR: 7.3 μg/(min · cm^2)
  Solubility, Cumulative: 5.057 µg/mL

## [2H]C([2H])([2H])C(c1cc2nnc(-c3cc(F)ccc3F)n2nc1OCc1ncnn1C)(C([2H])([2H])[2H])C([2H])([2H])[2H] [Malonate Salt, 3-(2,5-difluorophenyl)-7-[1,1-di(methyl-d3)ethyl-2,2,2-d3]-6-[(1-methyl-1H-1,2,4-triazol-5-yl)methoxy]-1,2,4-triazolo[4,3-b]pyridazine]
[1]; [3]
  AUClast: 24694 ng·h/mL
  Cmax: 2010 ng/mL
  Tmax: 4.7 h
[2]
  Solubility, time point 15 min: 0.352 µg/mL
  Solubility, time point 30 min: 0.454 µg/mL
  Solubility, time point 45 min: 0.579 µg/mL
  Solubility, time point 60 min: 0.68 µg/mL
  Solubility, time point 75 min: 0.757 µg/mL
  Solubility, time point 90 min: 0.87 µg/mL
  Solubility, time point 105 min: 1.04 µg/mL
  Solubility, time point 120 min: 1.05 µg/mL
  Intrinsic Dissolution Rate IDR: 6.9 μg/(min · cm^2)
  Solubility, Cumulative: 5.782 µg/mL

## [2H]C([2H])([2H])C(c1cc2nnc(-c3cc(F)ccc3F)n2nc1OCc1ncnn1C)(C([2H])([2H])[2H])C([2H])([2H])[2H] [Phosphate Salt, 3-(2,5-difluorophenyl)-7-[1,1-di(methyl-d3)ethyl-2,2,2-d3]-6-[(1-methyl-1H-1,2,4-triazol-5-yl)methoxy]-1,2,4-triazolo[4,3-b]pyridazine]
[1]; [3]
  AUClast: 18378 ng·h/mL
  Cmax: 1096 ng/mL
  Tmax: 5.3 h
[2]
  Solubility, time point 15 min: 0.358 µg/mL
  Solubility, time point 30 min: 0.375 µg/mL
  Solubility, time point 45 min: 0.449 µg/mL
  Solubility, time point 60 min: 0.543 µg/mL
  Solubility, time point 75 min: 0.615 µg/mL
  Solubility, time point 90 min: 0.769 µg/mL
  Solubility, time point 105 min: 0.912 µg/mL
  Solubility, time point 120 min: 0.11 µg/mL
  Intrinsic Dissolution Rate IDR: 7.0 μg/(min · cm^2)
  Solubility, Cumulative: 4.131 µg/mL

## [2H]C([2H])([2H])C(c1cc2nnc(-c3cc(F)ccc3F)n2nc1OCc1ncnn1C)(C([2H])([2H])[2H])C([2H])([2H])[2H] [Sulfate Salt, 3-(2,5-difluorophenyl)-7-[1,1-di(methyl-d3)ethyl-2,2,2-d3]-6-[(1-methyl-1H-1,2,4-triazol-5-yl)methoxy]-1,2,4-triazolo[4,3-b]pyridazine]
[1]; [3]
  AUClast: 18231 ng·h/mL
  Cmax: 1151 ng/mL
  Tmax: 4.0 h
[2]
  Solubility, time point 15 min: 0.316 µg/mL
  Solubility, time point 30 min: 0.364 µg/mL
  Solubility, time point 45 min: 0.453 µg/mL
  Solubility, time point 60 min: 0.569 µg/mL
  Solubility, time point 75 min: 0.668 µg/mL
  Solubility, time point 90 min: 0.772 µg/mL
  Solubility, time point 105 min: 0.944 µg/mL
  Solubility, time point 120 min: 1.06 µg/mL
  Intrinsic Dissolution Rate IDR: 7.1 μg/(min · cm^2)
  Solubility, Cumulative: 5.146 µg/mL

## [2H]C([2H])([2H])C(c1cc2nnc(-c3cc(F)ccc3F)n2nc1OCc1ncnn1C)(C([2H])([2H])[2H])C([2H])([2H])[2H] [Tosylate Salt, 3-(2,5-difluorophenyl)-7-[1,1-di(methyl-d3)ethyl-2,2,2-d3]-6-[(1-methyl-1H-1,2,4-triazol-5-yl)methoxy]-1,2,4-triazolo[4,3-b]pyridazine]
[1]; [3]
  AUClast: 23248 ng·h/mL
  Cmax: 1629 ng/mL
  Tmax: 10.7 h
[2]
  Solubility, time point 15 min: 0.56 µg/mL
  Solubility, time point 30 min: 0.638 µg/mL
  Solubility, time point 45 min: 0.755 µg/mL
  Solubility, time point 60 min: 0.88 µg/mL
  Solubility, time point 75 min: 1.02 µg/mL
  Solubility, time point 90 min: 1.15 µg/mL
  Solubility, time point 105 min: 1.43 µg/mL
  Solubility, time point 120 min: 1.39 µg/mL
  Intrinsic Dissolution Rate IDR: 8.7 μg/(min · cm^2)
  Solubility, Cumulative: 7.823 µg/mL
